Tests used:
Assay type in all cases: biochemical
JAK1 = JAK1 (Homo sapiens (Human), UniProt P23458); experiment: In vitro JAK kinase assay (TR-FRET), JAK1; conditions: catalytic domain aa 850-1154, GST-fusion; ATP 3 μM; peptide 60 nM; 30 minutes at room temperature
Method in brief: (§1)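 Each human JAK enzyme assayed on biotinylated poly(GT) peptide substrate, reaction 30 min at room temperature. Phosphorylation detected by TR-FRET after a 3 h detection incubation.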

JAK2 = JAK2 (Homo sapiens (Human), UniProt O60674); experiment: In vitro JAK kinase assay (TR-FRET), JAK2; conditions: catalytic domain aa 826-1132, GST-fusion; ATP 0.2 μM; peptide 20 nM; 30 minutes at room temperature
Method in brief: as §1

JAK3 = JAK3 (Homo sapiens (Human), UniProt P52333); experiment: In vitro JAK kinase assay (TR-FRET), JAK3; conditions: catalytic domain aa 795-1124, GST-fusion; ATP 0.6 μM; peptide 140 nM; 30 minutes at room temperature
Method in brief: as §1

JAK3, sequence (P52333 795-1124): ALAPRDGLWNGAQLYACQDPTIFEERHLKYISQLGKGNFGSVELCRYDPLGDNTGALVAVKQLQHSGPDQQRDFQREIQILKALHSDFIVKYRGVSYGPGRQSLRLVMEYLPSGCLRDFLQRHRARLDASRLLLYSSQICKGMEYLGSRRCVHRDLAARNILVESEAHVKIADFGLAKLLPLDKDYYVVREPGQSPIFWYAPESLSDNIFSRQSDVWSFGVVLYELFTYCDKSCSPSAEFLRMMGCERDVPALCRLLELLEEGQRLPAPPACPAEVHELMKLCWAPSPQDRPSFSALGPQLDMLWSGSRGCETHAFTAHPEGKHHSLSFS
JAK2, sequence (O60674 826-1132): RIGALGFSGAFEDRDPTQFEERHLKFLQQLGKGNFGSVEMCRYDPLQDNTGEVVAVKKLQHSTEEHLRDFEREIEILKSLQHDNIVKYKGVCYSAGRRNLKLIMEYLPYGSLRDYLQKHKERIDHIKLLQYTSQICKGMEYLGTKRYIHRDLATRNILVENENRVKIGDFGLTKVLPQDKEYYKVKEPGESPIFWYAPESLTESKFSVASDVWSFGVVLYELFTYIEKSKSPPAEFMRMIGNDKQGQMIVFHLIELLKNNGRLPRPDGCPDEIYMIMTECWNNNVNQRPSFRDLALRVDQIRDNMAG
JAK1, sequence (P23458 850-1154): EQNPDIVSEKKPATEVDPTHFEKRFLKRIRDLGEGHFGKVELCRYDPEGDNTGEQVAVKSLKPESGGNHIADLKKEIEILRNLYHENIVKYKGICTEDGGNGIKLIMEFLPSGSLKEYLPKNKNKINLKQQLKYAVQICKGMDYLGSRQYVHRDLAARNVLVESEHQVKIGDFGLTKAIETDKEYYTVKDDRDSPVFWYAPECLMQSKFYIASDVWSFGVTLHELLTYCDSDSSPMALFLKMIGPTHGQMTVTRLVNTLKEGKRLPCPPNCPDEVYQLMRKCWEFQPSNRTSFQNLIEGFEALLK

Row | IC50 (JAK1) [nM] | IC50 (JAK2) [nM] | IC50 (JAK3) [nM] | Compound
1 | 4 | 2 | 6 | CCOC(=O)c1ccc(-c2nc(-c3cnn4ccccc34)nc(N[C@@H]3CCCN(C(=O)CO)C3)c2F)cn1 [Example 38, Ethyl 5-(5-fluoro-6-{[(3R)-1-glycoloylpiperidin-3-yl]amino}-2-pyrazolo[1,5-a]pyridin-3-ylpyrimidin-4-yl)pyridine-2-carboxylate]
2 | 4 | 1 | 4 | C[C@H](Nc1nc(-c2cnn3ccccc23)nc(OC[C@@H](O)CO)c1F)c1ncc(F)cn1 [Example 13, (2S)-3-[(5-fluoro-6-{[(1S)-1-(5-fluoropyrimidin-2-yl)ethyl]amino}-2-pyrazolo[1,5-a]pyridin-3-ylpyrimidin-4-yl)oxy]propane-1,2-diol]
3 | 38 | 2 | 9 | O=C(CO)N1CCC[C@@H](Oc2nc(-c3cnn4ccccc34)nc(OCCO)c2F)C1 [Example 65, 2-((3R)-3-{[5-Fluoro-6-(2-hydroxyethoxy)-2-pyrazolo[1,5-a]pyridin-3-ylpyrimidin-4-yl]oxy}piperidin-1-yl)-2-oxoethanol]
4 | 48 | 1 | 6 | CN1CCN(c2nc(-c3cnn4ccccc34)nc(O[C@@H]3CCCN(C(=O)CC#N)C3)c2F)CC1 [Example 68, 3-((3R)-3-{[5-Fluoro-6-(4-methylpiperazin-1-yl)-2-pyrazolo[1,5-a]pyridin-3-ylpyrimidin-4-yl]oxy}piperidin-1-yl)-3-oxopropanenitrile]
5 | 66 | 2 | 7 | COC[C@H](C)Oc1nc(-c2cnn3ccccc23)nc(N[C@@H]2CCCN(C(=O)CO)C2)c1F [Example 58, 2-[(3R)-3-({5-Fluoro-6-[(1S)-2-methoxy-1-methylethoxy]-2-pyrazolo[1,5-a]pyridin-3-ylpyrimidin-4-yl}amino)piperidin-1-yl]-2-oxoethanol]
6 | 2 | 5 | 5 | O=C(CO)N1CCC[C@@H](Nc2cc(-c3cncc(O)c3)nc(-c3cnn4ccccc34)n2)C1 [Example 105, 5-(6-{[(3R)-1-Glycoloylpiperidin-3-yl]amino}-2-pyrazolo[1,5-a]pyridin-3-ylpyrimidin-4-yl)pyridin-3-ol]
7 | 0.5 | 2 | 2 | Cc1ccc(-c2cc(N[C@@H]3CCCN(C(=O)CC#N)C3)nc(-c3cnn4ccccc34)n2)cn1 [Example 100, 3-((3R)-3-{[6-(6-Methylpyridin-3-yl)-2-pyrazolo[1,5-a]pyridin-3-ylpyrimidin-4-yl]amino}piperidin-1-yl)-3-oxopropanenitrile]
8 | 4 | 0.7 | 1 | CCOCCOc1nc(-c2cnn3ccccc23)nc(N[C@@H]2CCCN(C(=O)CC#N)C2)c1F [Example 16, 3-((3R)-3-{[6-(2-ethoxyethoxy)-5-fluoro-2-pyrazolo[1,5-a]pyridin-3-ylpyrimidin-4-yl]amino}piperidin-1-yl)-3-oxopropanenitrile]
9 | 1 | 1 | 1 | N#CCC(=O)N1CCC[C@@H](Nc2cc(-c3cncc(O)c3)nc(-c3cnn4ccccc34)n2)C1 [Example 106, 3-((3R)-3-{[6-(5-Hydroxypyridin-3-yl)-2-pyrazolo[1,5-a]pyridin-3-ylpyrimidin-4-yl]amino}piperidin-1-yl)-3-oxopropanenitrile]
10 | 2 | 0.2 | 4 | Cc1cc(-c2nc(-c3cnn4ccccc34)nc(N[C@@H]3CCCN(C(=O)CO)C3)c2F)ccn1 [Example 34, 2-((3R)-3-{[5-Fluoro-6-(2-methylpyridin-4-yl)-2-pyrazolo[1,5-a]pyridin-3-ylpyrimidin-4-yl]amino}piperidin-1-yl)-2-oxoethanol]
11 | 114 | 2 | 5 | COC[C@@H](C)Oc1nc(-c2cnn3ccccc23)nc(N[C@@H]2CCCN(c3cnc(C#N)cn3)C2)c1F [Example 91, 5-[(3R)-3-({5-Fluoro-6-[(1R)-2-methoxy-1-methylethoxy]-2-pyrazolo[1,5-a]pyridin-3-ylpyrimidin-4-yl}amino)piperidin-1-yl]pyrazine-2-carbonitrile]
12 | 40 | 1 | 3 | C[C@H](Nc1nc(-c2cnn3ccccc23)nc(N2CCC(N)CC2)c1F)c1ccc(F)cn1 [Example 11, 6-(4-Aminopiperidin-1-yl)-5-fluoro-N-[(1S)-1-(5-fluoropyridin-2-yl)ethyl]-2-pyrazolo[1,5-a]pyridin-3-ylpyrimidin-4-amine]
13 | 14 | 1 | 4 | O=C(CO)N1CCC[C@@H](Nc2nc(-c3cnn4ccccc34)nc(-c3cncc(CO)c3)c2F)C1 [Example 88, 2-[(3R)-3-({5-Fluoro-6-[5-(hydroxymethyl)pyridin-3-yl]-2-pyrazolo[1,5-a]pyridin-3-ylpyrimidin-4-yl}amino)piperidin-1-yl]-2-oxoethanol]
14 | 11 | 1 | 11 | O=C(CO)N1CCC[C@@H](Oc2nc(-c3cnn4ccccc34)nc(N3CCOCC3)c2F)C1 [Example 52, 2-{(3R)-3-[(5-Fluoro-6-morpholin-4-yl-2-pyrazolo[1,5-a]pyridin-3-ylpyrimidin-4-yl)oxy]piperidin-1-yl}-2-oxoethanol]
15 | 4 | 0.8 | 2 | O=C(CO)N1CCC[C@@H](Nc2nc(-c3cnn4ccccc34)nc(OCCO)c2F)C1 [Example 40, 2-((3R)-3-{[5-Fluoro-6-(2-hydroxyethoxy)-2-pyrazolo[1,5-a]pyridin-3-ylpyrimidin-4-yl]amino}piperidin-1-yl)-2-oxoethanol]
16 | 23 | 3 | 6 | COc1nc(-c2cnn3ccccc23)nc(N[C@@H]2CCCN(C(=O)CO)C2)c1C [Example 93, 2-{(3R)-3-[(6-Methoxy-5-methyl-2-pyrazolo[1,5-a]pyridin-3-ylpyrimidin-4-yl)amino]piperidin-1-yl}-2-oxoethanol]
17 | 82 | 1 | 4 | N#CC[C@H]1CC[C@H](Nc2nc(-c3cnn4ccccc34)nc(N3CCC(N)CC3)c2F)CC1 [Example 2, (Trans-4-{[6-(4-aminopiperidin-1-yl)-5-fluoro-2-pyrazolo[1,5-a]pyridin-3-ylpyrimidin-4-yl]amino}cyclohexyl)acetonitrile]
18 | 28 | 3 | 8 | N#CCC(=O)N1CCC[C@@H](Oc2nc(-c3cnn4ccccc34)nc(NCCO)c2F)C1 [Example 70, 3-[(3R)-3-({5-Fluoro-6-[(2-hydroxyethyl)amino]-2-pyrazolo[1,5-a]pyridin-3-ylpyrimidin-4-yl}oxy)piperidin-1-yl]-3-oxopropanenitrile]
19 | 10 | 0.5 | 2 | N#CC[C@H]1CC[C@H](Nc2nc(-c3cnn4ccccc34)nc(OC[C@H](O)CO)c2F)CC1 [Example 7, {Trans-4-[(6-{[(2R)-2,3-dihydroxypropyl]oxy}-5-fluoro-2-pyrazolo[1,5-a]pyridin-3-ylpyrimidin-4-yl)amino]cyclohexyl}acetonitrile]
20 | 58 | 10 | 8 | C[C@H](CO)Oc1nc(-c2cnn3ccccc23)nc(N[C@@H]2CCCN(C(=O)CO)C2)c1F [Example 61, (2R)-2-[(5-Fluoro-6-{[(3R)-1-glycoloylpiperidin-3-yl]amino}-2-pyrazolo[1,5-a]pyridin-3-ylpyrimidin-4-yl)oxy]propan-1-ol]
21 | 6 | 1 | 6 | Cc1cc(-c2nc(-c3cnn4ccccc34)nc(O[C@@H]3CCCN(C(=O)CC#N)C3)c2F)ccn1 [Example 72, 3-((3R)-3-{[5-Fluoro-6-(2-methylpyridin-4-yl)-2-pyrazolo[1,5-a]pyridin-3-ylpyrimidin-4-yl]oxy}piperidin-1-yl)-3-oxopropanenitrile]
22 | 5 | 1 | 3 | N#CCC(=O)N1CCC[C@@H](Nc2nc(-c3cnn4ccccc34)nc(-c3cncc(CO)c3)c2F)C1 [Example 89, 3-[(3R)-3-({5-Fluoro-6-[5-(hydroxymethyl)pyridin-3-yl]-2-pyrazolo[1,5-a]pyridin-3-ylpyrimidin-4-yl}amino)piperidin-1-yl]-3-oxopropanenitrile]
23 | 2 | 0.3 | 2 | COc1ccc(-c2nc(-c3cnn4ccccc34)nc(N[C@@H]3CCCN(C(=O)CC#N)C3)c2F)cn1 [Example 19, 3-((3R)-3-{[5-fluoro-6-(6-methoxypyridin-3-yl)-2-pyrazolo[1,5-a]pyridin-3-ylpyrimidin-4-yl]amino}piperidin-1-yl)-3-oxopropanenitrile]
24 | 35 | 2 | 26 | Cc1cc(-c2nc(-c3cnn4ccccc34)nc(O[C@@H]3CCCN(C(=O)CO)C3)c2F)ccn1 [Example 71, 2-((3R)-3-{[5-Fluoro-6-(2-methylpyridin-4-yl)-2-pyrazolo[1,5-a]pyridin-3-ylpyrimidin-4-yl]oxy}piperidin-1-yl)-2-oxoethanol]
25 | 110 | 7 | 16 | COC[C@@H](C)Oc1nc(-c2cnn3ccccc23)nc(N[C@@H]2CCCN(C(=O)CO)C2)c1F [Example 60, 2-[(3R)-3-({5-Fluoro-6-[(1R)-2-methoxy-1-methylethoxy]-2-pyrazolo[1,5-a]pyridin-3-ylpyrimidin-4-yl}amino)piperidin-1-yl]-2-oxoethanol]

Row | Compound | IC50 (JAK1) [nM] | IC50 (JAK2) [nM] | IC50 (JAK3) [nM]
26 | 3-{(3R)-3-[(6-Methoxy-2-pyrazolo[1,5-a]pyridin-3-ylpyrimidin-4-yl)amino]piperidin-1-yl}-3-oxopropanenitrile [Example 95] | 3 | 3 | 7

Reference: patent US10759793B2, “2-(pyrazolopyridin-3-yl)pyrimidine derivatives as JAK inhibitors” (ALMIRALL, S.A., priority 2015, dated 2020)
